“Also recorded” adds a separate entry of the source.

This is an account of results in patent US11234945B2, “Wound healing composition” (AGENCY FOR SCIENCE, TECHNOLOGY AND RESEARCH, priority 2016, dated 2022).

Assay [1] has as its system intestinal epithelial cell. The settings on record: rodents, cited from earlier work.
The subject of the next assay is AMD1. Put plainly: AMD1 up-regulation post scratch (immunofluorescence, western blot). The following applies: combined pre-treatment: 1 μM Tg 24 hours and 2 mM EGTA 1 hour; 6 hours post scratch. Type of assay: cell-based, human. The procedure: (§1) It was then sought to determine if the up-regulation of AMD1 at the wound-edge was dependent on the wound-induced calcium wave. Human keratinocytes were labelled with the Ca^2+ probe Fluo-4 for 30 minutes prior to scratching to mimic a wound response. […] To assess the impact of a reduced calcium wave on up-regulation of AMD1, cells were pre-treated for 24 hours with 1 μM thapsigargin (Tg) and for 1 hour with 2 mM EGTA prior to scratch to deplete internal calcium stores and extracellular calcium, respectively.
(§2) Keratinocytes were seeded in glass-bottom 35-mm^2 dishes and cultured to full confluency in cell culture media. To deplete intracellular and extracellular Ca^2+ sources, cells were treated with 1 μM thapsigargin (Tg) (Sigma-Aldrich) for 24 hours and 2 mM ethylene glycol tetraacetic acid (EGTA, Sigma-Aldrich) for 1 hour prior to scratch. For Ca^2+ flux imaging, cells were incubated with Fluo-4,AM (Life Technologies; Thermo Fisher Scientific) and imaged with an automated confocal microscope (Spinning disk 3D-FRAP; Nikon Ti) at 0.2 second intervals for 5 minutes. Image analysis was performed using ImageJ software.
On the technique in general: Immunoblotting shows a protein as a band on a membrane.

Assay [2] deals with scratch-induced calcium wave in keratinocytes. Put plainly: Calcium wave imaging after scratch (Fluo-4). Type of assay: cell-based, human. The following applies: combined pre-treatment: 1 μM Tg 24 hours and 2 mM EGTA 1 hour prior to scratch. The procedure:
as §1, §2

The test system of a further assay is human ex vivo wounds. Put plainly: Human ex vivo excisional skin wounds, epithelial tongue length. The assay is classed as cell-based. The following applies: 500 μM topically every 24 hours for 3 days; examined after 72 hours; PBS control. The source says:
Human skin samples were sourced from Dr T. C. Lim at the Yong Loo Lin School of Medicine, National University of Singapore. Written consent from participants was obtained in all cases. The study was done in accordance with the declaration of Helsinki and was approved by a local scientific ethics review board. The skin was further dissected into 6-mm cubes or circles. Excisional skin wounds of approximately 3 to 4 mm were made with surgical scissors. The ex vivo wounded skin explants were cultured at the air-liquid interface and treated topically with 500 μM of putrescine, spermidine, spermine or 1× phosphate-buffered saline (PBS) every 24 hours for 3 days. Non-wounded skin, day 0- and day 3-wounded biopsies were bisected, with half snap-frozen in Optimal Cutting Temperature Compound (OCT) and the other half fixed in 10% buffered formalin saline and embedded in paraffin for histological analysis.
Histological sections were prepared from wound tissue embedded in paraffin or snap-frozen in OCT. […] Images were acquired using a fluorescence microscope (Zeiss AxioImager Z1; Carl Zeiss). […]

A further assay deals with sh-AMD1 keratinocytes. The following applies: supplementation in cell culture media, listed as Spermine. The procedure: (§3) Human immortalized keratinocytes (Dickson et al., 2000), N/TERT-1 were obtained and cultured in keratinocyte serum-free media (K-SFM; Life Technologies; Thermo Fisher Scientific) supplemented with 25 μg/ml bovine pituitary extract (BPE), 0.2 ng/ml epidermal growth factor (EGF), and 0.3 mM CaCl2, as previously described (Rheinwald et al., 2002). To culture cells to 100% confluence for scratch assays, N/TERT-1 cells were first cultured to 50% confluence in supplemented K-SFM growth medium and then switched to a media with a 1:1 ratio mixture of supplemented K-SFM and DF-K (a mixture of calcium free, glutamine free DMEM (Hyclone; GE Healthcare) with Ham's F-12/GlutaMAX (Gibco; Life Technologies; Thermo Fisher Scientific) at 1:1 (vol/vol) supplemented with 5 μg/ml BPE, 0.2 ng/ml EGF, and 1.5 mM L-glutamine (Life Technologies; Thermo Fisher Scientific)) until 100% confluent. Human HEK293T cells (Dharmacon; GE Healthcare) were used for lentiviral production as the packaging cell line and cultured in high glucose DMEM (Hyclone; GE Healthcare) with 10% fetal calf serum. All cells were grown in a humidified incubator with 5% CO2 at 37° C.
Confluent keratinocytes on ImageLock 96-well microplates (Essen BioScience, Inc) were scratched using a 96-pin wound maker (Essen BioScience, Inc) to create homogeneous, 700-800-μm wide scratch wounds in cell monolayers. […]

For a further assay, the system named is N/TERT-1 keratinocytes. Put plainly: In vitro scratch cell migration assay. Type of assay: cell-based, human. The settings on record: for cell migration / closure of scratch wound: control keratinocytes, 5 μM added 48 h prior to scratch, Incucyte wound width. The procedure:
as §3
In Vitro Scratch Cell Migration Assay
Confluent keratinocytes on ImageLock 96-well microplates (Essen BioScience, Inc) were scratched using a 96-pin wound maker (Essen BioScience, Inc) to create homogeneous, 700-800-μm wide scratch wounds in cell monolayers. Scratched cells were imaged using a real-time cell imaging system, IncuCyte, (Essen BioScience, Inc) to monitor cell migration. Putrescine, spermidine, or spermine (5 μM, Sigma-Aldrich) were added to cells and incubated for 48 h prior to scratch. For analysis of protein and RNA expression in migrating cells, keratinocytes were cultured to full confluency in a 6-well culture dish (Corning Costar) and scratched with the large end of a 1-mL pipette tip. At specific time points, the cells were either harvested in lysis buffer (150 mM sodium chloride, 1% (v/v) Triton X-100, 0.5% sodium deoxycholate, 1% (v/v) sodium dodecyl sulfate, 50 mM Tris-HCl, 1% (v/v) Nonidet P-40 (NP-40), 0.1 mM phenylmethylsulfonyl fluoride (PMSF), 5 mM EDTA, and 1% (v/v) protease and phosphatase inhibitor cocktail) for western blot or Trizol reagent (Life Technologies; Thermo Fisher Scientific) for RNA analysis.

As to `NCCCC(N)(C(=O)O)C(F)F` (racemic) [DFMO, (RS)-2,5-diamino-2-(difluoromethyl)pentanoic acid], in assay [1] (ODC1 inhibition), the “intestinal epithelial cell migration and proliferation” value was “prevents intestinal epithelial cell migration and proliferation”.
As for `O=C(O)CN(CCOCCOCCN(CC(=O)O)CC(=O)O)CC(=O)O` [EGTA, ethylene glycol tetraacetic acid], the “AMD1 up-regulation in scratched cells” value in the assay on AMD1 is on record as “completely abrogated”. Further, in assay [2], the “propagation of calcium wave upon scratch” value was “effectively prevented the calcium wave”.
The corresponding values for `C/C=C(/C)C(=O)O[C@H]1C(C)=C2[C@H]([C@@H]1OC(=O)CCCCCCC)[C@@](C)(OC(C)=O)C[C@H](OC(=O)CCC)[C@@]1(O)[C@H]2OC(=O)[C@@]1(C)O` [thapsigargin] are “completely abrogated; also recorded: completely abrogates AMD1 protein up-regulation” and “effectively prevented the calcium wave”.
Turning to `NCCCCNCCCN` [spermidine, 1,4-butanediamine, N-(3-aminopropyl)], the “epithelial tongue migration / wound repair” value in the assay on human ex vivo wounds is on record as “promoted a striking improvement in epithelial tongue migration; also recorded: promote wound repair of excisional human skin wounds”.
On to `NCCCNCCCCNCCCN` [spermine, 1,4-butanediamine, N,N′-bis(3-aminopropyl)], for which the “epithelial tongue migration / wound repair” value with human ex vivo wounds was “promoted a striking improvement in epithelial tongue migration; also recorded: promote wound repair of excisional human skin wounds”. In addition, the “restoration of impaired cell migration in AMD1-knockdown keratinocytes” value in the assay on sh-AMD1 keratinocytes is given as “restores impaired cell migration in sh-AMD1 keratinocytes”. Besides, the “cell migration / closure of scratch wound” value is recorded as “promoted scratch wound closure in the control cells; also recorded: sufficient to drive increased cell migration” in the assay with N/TERT-1 keratinocytes and “promotes the closure of scratch wounds in keratinocytes” with N/TERT-1 keratinocytes (listed as Spermine). In addition, in the assay with N/TERT-1 keratinocytes (keratinocytes treated with EGBG, data not shown), the “rescue of EGBG-induced delay in cell migration” value is reported as “similarly rescued by the addition of spermine”.
As to `O=C(O)CN(CCN(CC(=O)O)CC(=O)O)CC(=O)O` [EDTA], in the assay with AMD1, the “AMD1 up-regulation in scratched cells” value is “completely abrogates AMD1 protein up-regulation”.
With `CCC(/C=N/N=C(N)N)=N\N=C(N)N` [EGBG, reference compound], the “cell migration after AMD1 inhibitor” value in the assay on N/TERT-1 keratinocytes (data not shown, concentration not given) is “resulted in a similar delay in cell migration”.
For `NCCCCN` [putrescine, butane-1,4-diamine, reference compound], the “cell migration / closure of scratch wound” value with N/TERT-1 keratinocytes is “significantly impedes cell migration”; in the assay on N/TERT-1 keratinocytes (listed as Putrescine) it was “caused an inhibition of keratinocyte migration and a delay in closure of the scratch wound”. For the same molecule, the “rescue of DFMO effect on intestinal epithelial cell migration and proliferation” value in assay [1] (supplementation after DFMO) is listed as “can be rescued through supplementation with putrescine”.
